Among the data in patent US9255100B2 (BAYER INTELLECTUAL PROPERTY GMBH, priority 2010, dated 2016) are IC50 values, retold here.

This test addresses T1, N-terminally GST-tagged human full length recombinant Mps-1 kinase (Homo sapiens, UniProt P33981).
T1 construct: N-terminally GST-tagged human full length recombinant Mps-1 kinase; purchased Invitrogen, Karslruhe, Germany PV4071
T1 sequence (P33981 1-857): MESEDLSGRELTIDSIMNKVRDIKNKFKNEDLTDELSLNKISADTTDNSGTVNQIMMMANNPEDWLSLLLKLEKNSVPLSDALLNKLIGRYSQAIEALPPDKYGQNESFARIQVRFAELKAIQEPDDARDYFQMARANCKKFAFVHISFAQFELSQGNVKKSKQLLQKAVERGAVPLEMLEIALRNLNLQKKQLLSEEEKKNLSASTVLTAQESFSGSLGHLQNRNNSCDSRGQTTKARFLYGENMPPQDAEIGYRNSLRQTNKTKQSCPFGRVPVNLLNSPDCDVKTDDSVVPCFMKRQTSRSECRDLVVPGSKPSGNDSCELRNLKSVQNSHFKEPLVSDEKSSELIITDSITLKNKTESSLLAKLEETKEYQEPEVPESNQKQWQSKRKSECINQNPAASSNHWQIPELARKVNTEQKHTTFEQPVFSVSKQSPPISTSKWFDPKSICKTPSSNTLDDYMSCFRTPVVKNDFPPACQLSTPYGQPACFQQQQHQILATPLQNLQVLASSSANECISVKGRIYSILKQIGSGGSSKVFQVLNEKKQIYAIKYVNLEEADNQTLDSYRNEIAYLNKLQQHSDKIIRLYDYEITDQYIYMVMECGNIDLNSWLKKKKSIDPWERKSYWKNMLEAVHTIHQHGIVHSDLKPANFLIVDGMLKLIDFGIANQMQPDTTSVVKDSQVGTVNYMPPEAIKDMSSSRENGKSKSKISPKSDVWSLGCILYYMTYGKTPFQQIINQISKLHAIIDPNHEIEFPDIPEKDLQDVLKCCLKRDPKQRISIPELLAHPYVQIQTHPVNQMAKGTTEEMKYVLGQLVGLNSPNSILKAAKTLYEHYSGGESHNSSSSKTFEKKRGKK
The experiment in a line: Mps-1 kinase assay (TR-FRET). The test is classed as biochemical. Conditions: Mps1 IC50 [nM], 10 μM ATP, 1 μM peptide substrate, 60 min at 22° C. The method in brief:
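Kinase activity of N-terminally GST-tagged full-length recombinant Mps-1, used at about 1 nM final and set within the linear range, was measured on a biotinylated peptide substrate. Phosphopeptide was detected by TR-FRET from Eu-anti-phospho(Ser/Thr) antibody to streptavidin-XLent after 1 h at 22° C.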
By IC50 is commonly meant the midpoint of a concentration-inhibition curve. With `CC(C)(O)CNc1cc(Sc2ccccc2)nn2c(-c3ccc(C(=O)NC4CC4)cc3O)cnc12` [Example 51B, N-cyclopropyl-3-hydroxy-4-{8-[(2-hydroxy-2-methylpropyl)amino]-6-(phenylsulfanyl)imidazo[1,2-b]pyridazin-3-yl}benzamide], the IC50 is 1.2 nM.
In the case of `CC(C)CNc1cc(-c2ccccc2O)nn2c(-c3ccc(C(=O)NC4CC4)cc3)cnc12` [Example 139, N-cyclopropyl-4-{6-(2-hydroxyphenyl)-8-[(2-methylpropyl)amino]imidazo[1,2-b]pyridazin-3-yl}benzamide], the IC50 was 3.7 nM.
Next, `Cc1cc(-c2cnc3c(NCC(C)(C)O)cc(Oc4cncnc4)nn23)ccc1C(=O)NC1CC1` [Example 265, N-cyclopropyl-4-{8-[(2-hydroxy-2-methylpropyl)amino]-6-(pyrimidin-5-yloxy)imidazo[1,2-b]pyridazin-3-yl}-2-methylbenzamide]: 0.9 nM; `CC(C)CNc1cc(-c2cncc(C#N)c2)nn2c(-c3ccc(C(=O)NC4CC4)cc3)cnc12` [Example 147, 4-{6-(5-Cyanopyridin-3-yl)-8-[(2-methylpropyl)amino]imidazo[1,2-b]pyridazin-3-yl}-N-cyclopropylbenzamide]: 2.2 nM.
To `Cc1cc(-c2cnc3c(NCCC(F)(F)F)cc(Nc4cccnc4)nn23)ccc1C(=O)NC1CC1` [Example 439, N-cyclopropyl-2-methyl-4-{6-(pyridin-3-ylamino)-8-[(3,3,3-trifluoropropyl)amino]imidazo[1,2-b]pyridazin-3-yl}benzamide] belongs 0.2 nM; to `CC(C)CNc1cc(-c2ccc(C(=O)NC(C)C)cc2)nn2c(-c3ccc(C(=O)NC4CC4)cc3)cnc12` [Example 120, 4-{3-[4-(Cyclopropylcarbamoyl)phenyl]-8-[(2-methylpropyl)amino]imidazo[1,2-b]pyridazin-6-yl}-N-(propan-2-yl)benzamide], 2.5 nM; to `Cc1cc(-c2cnc3c(NCCC(F)(F)F)cc(Oc4ccccc4N)nn23)ccc1C(=O)NC1CC1` [Example 395, 4-{6-(2-aminophenoxy)-8-[(3,3,3-trifluoropropyl)amino]imidazo[1,2-b]pyridazin-3-yl}-N-cyclopropyl-2-methylbenzamide], 0.3 nM.
To `Cc1cc(-c2cnc3c(NCC(C)(C)O)cc(Sc4cc(F)ccc4F)nn23)ccc1C(=O)NC1CC1` [Example 248, N-cyclopropyl-4-{6-[(2,5-difluorophenyl)sulfanyl]-8-[(2-hydroxy-2-methylpropyl)amino]imidazo[1,2-b]pyridazin-3-yl}-2-methylbenzamide] belongs 0.5 nM.
Regarding `CNC(=O)c1ccc(-c2cnc3c(NCC4CCOCC4)cc(Oc4cccc(F)c4)nn23)cc1C` [Example 569, 4-{6-(3-fluorophenoxy)-8-[(tetrahydro-2H-pyran-4-ylmethyl)amino]imidazo[1,2-b]pyridazin-3-yl}-N,2-dimethylbenzamide], the IC50 is less than 1 nM.
Take `Cc1cc(-c2cnc3c(NCC4COC4)cc(Oc4cccc(F)c4)nn23)ccc1C(=O)NC1CC1` [Example 495, N-cyclopropyl-4-{6-(3-fluoro-phenoxy)-8-[(oxetan-3-ylmethyl)amino]imidazo[1,2-b]pyridazin-3-yl}-2-methylbenzamide]: the IC50 was determined as 0.1 nM.
To `C=Cc1cc(NCCC(F)(F)F)c2ncc(-c3ccc(-c4cnc(C5CC5)[nH]4)cc3)n2n1` [Example 22, 3-[4-(2-Cyclopropyl-1H-imidazol-5-yl)phenyl]-6-ethenyl-N-(3,3,3-trifluoropropyl)imidazo[1,2-b]pyridazin-8-amine] belongs 35.7 nM; to `Cc1cc(-c2cnc3c(NCC(C)(C)O)cc(-c4cn[nH]c4)nn23)ccc1C(=O)NC1CC1` [Example 162, N-cyclopropyl-4-{8-[(2-hydroxy-2-methylpropyl)amino]-6-(1H-pyrazol-4-yl)imidazo[1,2-b]pyridazin-3-yl}-2-methylbenzamide], 64.9 nM.
To `Cc1cc(-c2cnc3c(NCC4CCS(=O)(=O)C4)cc(Oc4cccc(F)c4)nn23)ccc1C(=O)NC1CC1` (centres unmarked) [Example 327, N-cyclopropyl-4-[8-{[(1,1-dioxidotetrahydro-thiophen-3-yl)methyl]amino}-6-(3-fluorophenoxy)imidazo[1,2-b]pyridazin-3-yl]-2-methylbenzamide] belongs 0.3 nM; to `Cc1cc(-c2cnc3c(NCCCCN(C)C)cc(Oc4cccc(F)c4)nn23)ccc1C(=O)NC1CC1` [Example 513, N-cyclopropyl-4-[8-{[4-(dimethyl-amino)butyl]amino}-6-(3-fluoro-phenoxy)imidazo[1,2-b]pyridazin-3-yl]-2-methylbenzamide], 0.2 nM.
To `Cc1cc(-c2cnc3c(NCC(O)C(F)(F)F)cc(Oc4cccc(F)c4)nn23)ccc1C(=O)NC1CC1` (centres unmarked) [Example 486, N-cyclopropyl-4-{6-(3-fluorophenoxy)-8-[(3,3,3-trifluoro-2-hydroxypropyl)amino]imidazo[1,2-b]pyridazin-3-yl}-2-methylbenzamide] belongs 0.1 nM; to `Cc1cc(-c2cnc3c(NCCC(F)(F)F)cc(Sc4cccc(F)c4F)nn23)ccc1C(=O)NC1CC1` [Example 252, N-cyclopropyl-4-{6-[(2,3-difluorophenyl)sulfanyl]-8-[(3,3,3-trifluoropropyl)amino]imidazo[1,2-b]pyridazin-3-yl}-2-methylbenzamide], 0.2 nM.
For `Cc1cccc(Oc2cc(NCC(C)(C)O)c3ncc(-c4ccc(C(=O)NC5CC5)c(C)c4)n3n2)c1` [Example 97, N-cyclopropyl-4-{8-[(2-hydroxy-2-methylpropyl)amino]-6-(3-methylphenoxy)imidazo[1,2-b]pyridazin-3-yl}-2-methylbenzamide], the IC50 turned out to be 0.2 nM.
Consider `CC(C)CNc1cc(-c2ccc(S(C)(=O)=O)cc2)nn2c(-c3ccc(C(=O)NC4CC4)cc3)cnc12` [Example 142, N-cyclopropyl-4-{8-[(2-methylpropyl)amino]-6-[4-(methylsulfonyl)phenyl]imidazo[1,2-b]pyridazin-3-yl}benzamide], for which the IC50 is 1.4 nM.
Turning to `CC(C)CNc1cc(-c2ccc(C(N)=O)cc2)nn2c(-c3ccc(C(=O)NC4CC4)cc3)cnc12` [Example 113, 4-{6-(4-Carbamoylphenyl)-8-[(2-methylpropyl)amino]imidazo[1,2-b]pyridazin-3-yl}-N-cyclopropylbenzamide], the 50% inhibitory concentration (IC50) is 2 nM.
Consider `CNC(=O)c1ccc(-c2cnc3c(NCCOC)cc(Oc4cc(F)ccc4C)nn23)cc1C` [Example 585, 4-{6-(5-fluoro-2-methylphenoxy)-8-[(2-methoxyethyl)a-mino]imidazo[1,2-b]pyridazin-3-yl}-N,2-dimethylbenzamide], for which the half-inhibitory concentration (IC50) was 5.4 nM.
Consider `Cc1cc(-c2cnc3c(NCC(C)(C)O)cc(Oc4cccc(C(C)C)c4)nn23)ccc1C(=O)NC1CC1` [Example 94, N-cyclopropyl-4-{8-[(2-hydroxy-2-methylpropyl)amino]-6-(3-isopropylphenoxy)imidazo[1,2-b]pyridazin-3-yl}-2-methylbenzamide], for which the IC50 amounted to 0.3 nM.
Consider `Cc1cc(-c2cnc3c(NCC(C)(C)O)cc(Oc4cc(F)cc(F)c4)nn23)ccc1C(=O)NC1CC1` [Example 262, N-cyclopropyl-4-{6-(3,5-difluorophenoxy)-8-[(2-hydroxy-2-methylpropyl)amino]imidazo[1,2-b]pyridazin-3-yl}-2-methylbenzamide], for which the IC50 was 0.2 nM.
To `CNC(=O)c1ccc(-c2cnc3c(NCCC(F)(F)F)cc(Oc4ccc(Cl)cc4)nn23)cc1C` [Example 558, 4-{6-(4-chlorophenoxy)-8-[(3,3,3-trifluoropropyl)amino]imidazo[1,2-b]pyridazin-3-yl}-N, 2-dimethylbenzamide] belongs 0.3 nM; to `CC(C)CNc1cc(-c2cnc3ccccc3c2)nn2c(-c3ccc(C(=O)NC4CC4)cc3)cnc12` [Example 108, N-cyclopropyl-4-{8-[(2-methylpropyl)amino]-6-(quinolin-3-yl)imidazo[1,2-b]pyridazin-3-yl} benzamide], 7 nM.
Consider `Cc1ccc(Cl)cc1Nc1cc(NCC(C)(C)O)c2ncc(-c3ccc(C(=O)NC4CC4)c(C)c3)n2n1` [Example 404, 4-{6-[(5-chloro-2-methylphenyl)amino]-8-[(2-hydroxy-2-methylpropyl)amino]imidazo[1,2-b]pyridazin-3-yl}-N-cyclopropyl-2-methylbenzamide], for which the IC50 stood at 0.3 nM.
To `CCNC(=O)c1ccc(-c2cnc3c(NCCN4CCOCC4)cc(Oc4ccc(F)c(F)c4)nn23)cc1C` [Example 588, 4-[6-(3,4-difluorophenoxy)-8-{[2-(morpholin-4-yl)ethyl]amino}imidazo[1,2-b]pyridazin-3-yl]-N-ethyl-2-methylbenzamide] belongs 2.2 nM.
